1 compound from patent US10953015B2, “Use of adenosine receptor signaling to regulate P-gp function” (CORNELL UNIVERSITY, priority 2016, dated 2021) can be followed below.

Molecules are shown by their SMILES.

Assay [1] deals with P-gp. Briefly: Ubiquitination of P-gp in primary human brain endothelial cells (immunoprecipitation, IFA). It counts as cell-based. The following applies: 15 minutes. Here is the method: FIG. 10A is a western blot showing immunoprecipitation analysis of ubiquitination of P-gp in human primary brain endothelial cells upon activation with Lexiscan® for 15 minutes. P-gp was pulled down with an anti-P-gp antibody and immunoblotted with an anti-ubiquitin antibody. FIG. 10B are immunofluorescence microscopy images depicting ubiquitination of P-gp in human primary brain endothelial cells upon activation with Lexiscan® for 15 minutes. Cells were fixed, permeabilized, and stained with an anti-P-gp (green) and anti-ubiquitin (red) antibody. Nucleus was counterstained with DAPI (blue). The scale bar indicates 25 μm. FIG. 10C is a schematic diagram depicting the mechanism of P-gp down-regulation by Lexiscan®. Upon activation of A2A AR, P-gp is cleaved by MMP9 and secreted to the extracellular space (a), or ubiquitinated and digested by proteasome (b), or can relocate from the soluble fraction to the insoluble fraction (c). These mechanisms may occur independently or in combination.
4 G Sepharose beads were purchased from Invitrogen and incubated with human P-gp antibody (BD Biosciences) overnight at 4° C. using a rocking shaker. Beads were washed twice using lysis buffer containing protease inhibitor, and lysates from primary brain endothelial cells were incubated overnight at 4° C. using a rocking shaker. […]

Assay [2] has as its system P-gp. The experiment in a line: Rho123 accumulation in MCF7 breast cancer cells. The format is cell-based, human. The following applies: 0.025 μM Lexiscan® concomitant with Rho123, vs vehicle control.

In the case of `CNC(=O)c1cnn(-c2nc(N)c3ncn([C@@H]4O[C@H](CO)[C@@H](O)[C@H]4O)c3n2)c1` [Lexiscan®, 1-[6-amino-9-[(2R,3R,4S,5R)-3,4-dihydroxy-5-(hydroxymethyl)oxolan-2-yl]purin-2-yl]-N-methylpyrazole-4-carboxamide], the “Ubiquitinylation of P-gp” value with P-gp [1] is “induced increased ubiquitinylation of P-gp compared with vehicle control”. Moreover, the Rho123 accumulation entry in the assay with P-gp [2] is “significant Rho123 accumulation occurred by 15 minutes and 60 minutes”.
